Assay results from PubChem BioAssay AID1963975 (Molecular Pharmacology Branch, DTP, NCI, 2024).
pIC50: −log10 of the molar value.

System: 624824-186-R-J2-PDC multicell spheroids, viability
Assay: Anticancer human tumor 624824-186-R-J2-PDC patient-derived colon adenocarcinoma cell line growth inhibition [PI3K]
Conditions: for pIC50: curve of first compound; for viability, T/C: stronger effect = lower value
Procedure, shortened: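 Targeted small molecules plus PI3K inhibitors, half-log dose series from Cmax (default top 10 microM), were applied to heterotypic spheroids of cancer cells with HUVEC and MSCs. Viability indicated growth inhibition.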

[1] = second compound 0.0316 µM, first compound 0.0316 µM
[2] = second compound 0.0316 µM, first compound 0.1 µM
[3] = second compound 0.0316 µM, first compound 0.316 µM
[4] = second compound 0.0316 µM, first compound 1 µM
[5] = second compound 0.0316 µM, first compound 3.16 µM
[6] = second compound 0.0316 µM, first compound 10 µM
[7] = second compound 0.1 µM, first compound 0.0316 µM
[8] = second compound 0.1 µM, first compound 0.1 µM
[9] = second compound 0.1 µM, first compound 0.316 µM
[10] = second compound 0.1 µM, first compound 1 µM
[11] = second compound 0.1 µM, first compound 3.16 µM
[12] = second compound 0.1 µM, first compound 10 µM
[13] = second compound 0.316 µM, first compound 0.0316 µM
[14] = second compound 0.316 µM, first compound 0.1 µM
[15] = second compound 0.316 µM, first compound 0.316 µM
[16] = second compound 0.316 µM, first compound 1 µM
[17] = second compound 0.316 µM, first compound 3.16 µM
[18] = second compound 0.316 µM, first compound 10 µM
[19] = second compound 1 µM, first compound 0.0316 µM
[20] = second compound 1 µM, first compound 0.1 µM
[21] = second compound 1 µM, first compound 0.316 µM
[22] = second compound 1 µM, first compound 1 µM
[23] = second compound 1 µM, first compound 3.16 µM
[24] = second compound 1 µM, first compound 10 µM
[25] = second compound 3.16 µM, first compound 0.0316 µM
[26] = second compound 3.16 µM, first compound 0.1 µM
[27] = second compound 3.16 µM, first compound 0.316 µM
[28] = second compound 3.16 µM, first compound 1 µM
[29] = second compound 3.16 µM, first compound 3.16 µM
[30] = second compound 3.16 µM, first compound 10 µM
[31] = second compound 10 µM, first compound 0.0316 µM
[32] = second compound 10 µM, first compound 0.1 µM
[33] = second compound 10 µM, first compound 0.316 µM
[34] = second compound 10 µM, first compound 1 µM
[35] = second compound 10 µM, first compound 3.16 µM
[36] = second compound 10 µM, first compound 10 µM
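Note: spheroids exposed to agents for 7 days before viability read.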
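Throughout, for viability, T/C: 100% = DMSO vehicle treated spheroids.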

## CC(C)NCC(C(=O)N1CCN(c2ncnc3c2C(C)CC3O)CC1)c1ccc(Cl)cc1 (stereo not drawn) + CC(Nc1ncnc2nc[nH]c12)c1cc2cccc(Cl)c2c(=O)n1-c1ccccc1
Second compound 0.0316 µM
  pIC50: < 5.00
Second compound 0.1 µM
  pIC50: < 5.00
Second compound 0.316 µM
  pIC50: < 5.00
Second compound 1 µM
  pIC50: < 5.00
Second compound 3.16 µM
  pIC50: < 5.00
Second compound 10 µM
  pIC50: < 5.00
[1]
  viability, T/C: 86.1%
[2]
  viability, T/C: 87.8%
[3]
  viability, T/C: 75.5%
[4]
  viability, T/C: 89.6%
[5]
  viability, T/C: 88.4%
[6]
  viability, T/C: 89.4%
[7]
  viability, T/C: 111%
[8]
  viability, T/C: 84.9%
[9]
  viability, T/C: 88.4%
[10]
  viability, T/C: 82.2%
[11]
  viability, T/C: 85%
[12]
  viability, T/C: 86.6%
[13]
  viability, T/C: 112%
[14]
  viability, T/C: 113%
[15]
  viability, T/C: 71.3%
[16]
  viability, T/C: 95.6%
[17]
  viability, T/C: 81%
[18]
  viability, T/C: 74.7%
[19]
  viability, T/C: 106%
[20]
  viability, T/C: 96.2%
[21]
  viability, T/C: 99.4%
[22]
  viability, T/C: 85%
[23]
  viability, T/C: 90.8%
[24]
  viability, T/C: 89.3%
[25]
  viability, T/C: 85.6%
[26]
  viability, T/C: 104%
[27]
  viability, T/C: 100%
[28]
  viability, T/C: 82.1%
[29]
  viability, T/C: 88.1%
[30]
  viability, T/C: 87.2%
[31]
  viability, T/C: 98.7%
[32]
  viability, T/C: 108%
[33]
  viability, T/C: 103%
[34]
  viability, T/C: 88.1%
[35]
  viability, T/C: 75.5%
[36]
  viability, T/C: 71.4%

## CCN1CCN(Cc2ccc(Nc3ncc(F)c(-c4cc(F)c5nc(C)n(C(C)C)c5c4)n3)nc2)CC1 + CC(Nc1ncnc2nc[nH]c12)c1cc2cccc(Cl)c2c(=O)n1-c1ccccc1
Second compound 0.0316 µM
  pIC50: < 6.00
Second compound 0.1 µM
  pIC50: < 6.00
Second compound 0.316 µM
  pIC50: < 6.00
Second compound 1 µM
  pIC50: < 6.00
Second compound 3.16 µM
  pIC50: < 6.00
Second compound 10 µM
  pIC50: < 6.00
Second compound 0.0316 µM, first compound 0.00316 µM
  viability, T/C: 91.4%
Second compound 0.0316 µM, first compound 0.01 µM
  viability, T/C: 125%
[1]
  viability, T/C: 77.5%
[2]
  viability, T/C: 83.9%
[3]
  viability, T/C: 85.3%
[4]
  viability, T/C: 101%
Second compound 0.1 µM, first compound 0.00316 µM
  viability, T/C: 121%
Second compound 0.1 µM, first compound 0.01 µM
  viability, T/C: 100%
[7]
  viability, T/C: 100%
[8]
  viability, T/C: 102%
[9]
  viability, T/C: 88.1%
[10]
  viability, T/C: 115%
Second compound 0.316 µM, first compound 0.00316 µM
  viability, T/C: 99.8%
Second compound 0.316 µM, first compound 0.01 µM
  viability, T/C: 96.2%
[13]
  viability, T/C: 95.5%
[14]
  viability, T/C: 66.9%
[15]
  viability, T/C: 92%
[16]
  viability, T/C: 112%
Second compound 1 µM, first compound 0.00316 µM
  viability, T/C: 104%
Second compound 1 µM, first compound 0.01 µM
  viability, T/C: 72.2%
[19]
  viability, T/C: 85.8%
[20]
  viability, T/C: 81.4%
[21]
  viability, T/C: 93.7%
[22]
  viability, T/C: 102%
Second compound 3.16 µM, first compound 0.00316 µM
  viability, T/C: 91%
Second compound 3.16 µM, first compound 0.01 µM
  viability, T/C: 86.5%
[25]
  viability, T/C: 77.3%
[26]
  viability, T/C: 95.8%
[27]
  viability, T/C: 111%
[28]
  viability, T/C: 112%
Second compound 10 µM, first compound 0.00316 µM
  viability, T/C: 120%
Second compound 10 µM, first compound 0.01 µM
  viability, T/C: 100%
[31]
  viability, T/C: 114%
[32]
  viability, T/C: 91.6%
[33]
  viability, T/C: 91.2%
[34]
  viability, T/C: 101%

## Cn1ncc(Cl)c1-c1cc(C(=O)NC(CN)Cc2cccc(F)c2)sc1Cl (stereo not drawn) + CC(Nc1ncnc2nc[nH]c12)c1cc2cccc(Cl)c2c(=O)n1-c1ccccc1
Second compound 0.0316 µM
  pIC50: < 5.00
Second compound 0.1 µM
  pIC50: 5.02
Second compound 0.316 µM
  pIC50: < 5.00
Second compound 1 µM
  pIC50: 5.15
Second compound 3.16 µM
  pIC50: < 5.00
Second compound 10 µM
  pIC50: 5.03
[1]
  viability, T/C: 73.9%
[2]
  viability, T/C: 85.7%
[3]
  viability, T/C: 71.5%
[4]
  viability, T/C: 68.3%
[5]
  viability, T/C: 57.2%
[6]
  viability, T/C: 55.1%
[7]
  viability, T/C: 80.1%
[8]
  viability, T/C: 67.8%
[9]
  viability, T/C: 80.7%
[10]
  viability, T/C: 73%
[11]
  viability, T/C: 67.6%
[12]
  viability, T/C: 49.2%
[13]
  viability, T/C: 95.3%
[14]
  viability, T/C: 86.4%
[15]
  viability, T/C: 67%
[16]
  viability, T/C: 69%
[17]
  viability, T/C: 63.6%
[18]
  viability, T/C: 47.8%
[19]
  viability, T/C: 82.1%
[20]
  viability, T/C: 95.8%
[21]
  viability, T/C: 71%
[22]
  viability, T/C: 78.2%
[23]
  viability, T/C: 62.3%
[24]
  viability, T/C: 44.2%
[25]
  viability, T/C: 79.9%
[26]
  viability, T/C: 91.6%
[27]
  viability, T/C: 78.8%
[28]
  viability, T/C: 70.2%
[29]
  viability, T/C: 69.8%
[30]
  viability, T/C: 50.6%
[31]
  viability, T/C: 104%
[32]
  viability, T/C: 73.2%
[33]
  viability, T/C: 89.7%
[34]
  viability, T/C: 68.7%
[35]
  viability, T/C: 64.1%
[36]
  viability, T/C: 47.1%

## Cn1nccc1Nc1nccc(-c2ccn(C(CO)c3ccc(Cl)c(F)c3)c(=O)c2)n1 (stereo not drawn) + CC(Nc1ncnc2nc[nH]c12)c1cc2cccc(Cl)c2c(=O)n1-c1ccccc1
Second compound 0.0316 µM
  pIC50: < 5.00
Second compound 0.1 µM
  pIC50: < 5.00
Second compound 0.316 µM
  pIC50: < 5.00
Second compound 1 µM
  pIC50: < 5.00
Second compound 3.16 µM
  pIC50: < 5.00
Second compound 10 µM
  pIC50: < 5.00
[1]
  viability, T/C: 73.9%
[2]
  viability, T/C: 61.6%
[3]
  viability, T/C: 72.4%
[4]
  viability, T/C: 76.7%
[5]
  viability, T/C: 87.6%
[6]
  viability, T/C: 85.4%
[7]
  viability, T/C: 110%
[8]
  viability, T/C: 83.8%
[9]
  viability, T/C: 78%
[10]
  viability, T/C: 74.7%
[11]
  viability, T/C: 82.4%
[12]
  viability, T/C: 89.6%
[13]
  viability, T/C: 90.7%
[14]
  viability, T/C: 94%
[15]
  viability, T/C: 59.5%
[16]
  viability, T/C: 66.1%
[17]
  viability, T/C: 82.1%
[18]
  viability, T/C: 83.7%
[19]
  viability, T/C: 96%
[20]
  viability, T/C: 87.4%
[21]
  viability, T/C: 67.8%
[22]
  viability, T/C: 74.2%
[23]
  viability, T/C: 80.3%
[24]
  viability, T/C: 79.7%
[25]
  viability, T/C: 106%
[26]
  viability, T/C: 70.2%
[27]
  viability, T/C: 61.9%
[28]
  viability, T/C: 77.7%
[29]
  viability, T/C: 75.5%
[30]
  viability, T/C: 63.7%
[31]
  viability, T/C: 82.1%
[32]
  viability, T/C: 90.2%
[33]
  viability, T/C: 85.9%
[34]
  viability, T/C: 70.8%
[35]
  viability, T/C: 67.8%
[36]
  viability, T/C: 61%
